Assay results taken from the supplement of paper PMC10307832.

Legend:
Experiment in all cases: relative viability (nuclei count vs DMSO), 5 days (fraction); higher = more cells survive
Nelarabine + AZD7762 = compound: COc1nc(N)nc2c1ncn2[C@@H]1O[C@H](CO)[C@@H](O)[C@@H]1O [Nelarabine] + NC(=O)Nc1cc(-c2cccc(F)c2)sc1C(=O)N[C@H]1CCCNC1 [AZD7762] (partner 0.2 µM)
Summary of the method: (§1)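 For relative viability, nuclei counts in treated wells were divided by those in vehicle wells. Lung cancer cell lines had been pin-tool dosed in 1536-well plates the day after seeding and cultured for 5 days, then fixed and stained in one step (final 0.05% Triton X-100, 1% formaldehyde, 1 ug/ml Hoechst) and imaged at 4×. Doses were one drug alone or a fixed anchor-drug dose plus five library-drug doses (not always all listed) in √10 steps, and values are duplicate-plate medians.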

Adavosertib + Pictilisib = compound: C=CCn1c(=O)c2cnc(Nc3ccc(N4CCN(C)CC4)cc3)nc2n1-c1cccc(C(C)(C)O)n1 [Adavosertib] + CS(=O)(=O)N1CCN(Cc2cc3nc(-c4cccc5[nH]ncc45)nc(N4CCOCC4)c3s2)CC1 [Pictilisib] (partner 1 µM)
Summary of the method: as §1

Nelarabine + Trametinib = compound: COc1nc(N)nc2c1ncn2[C@@H]1O[C@H](CO)[C@@H](O)[C@@H]1O [Nelarabine] + CC(=O)Nc1cccc(-n2c(=O)n(C3CC3)c(=O)c3c(Nc4ccc(I)cc4F)n(C)c(=O)c(C)c32)c1 [Trametinib] (partner 0.02 µM)
Summary of the method: as §1

Adavosertib + Decitabine = compound: C=CCn1c(=O)c2cnc(Nc3ccc(N4CCN(C)CC4)cc3)nc2n1-c1cccc(C(C)(C)O)n1 [Adavosertib] + Nc1ncn([C@H]2C[C@H](O)[C@@H](CO)O2)c(=O)n1 [Decitabine] (partner 2 µM)
Summary of the method: as §1

| Cell Line | relative viability (Nelarabine + AZD7762; first compound 0.01 µM) | relative viability (Nelarabine + AZD7762; first compound 0.03162 µM) | relative viability (Nelarabine + AZD7762; first compound 0.1 µM) | relative viability (Nelarabine + AZD7762; first compound 0.3162 µM) | relative viability (Nelarabine + AZD7762; first compound 1 µM) | relative viability (Adavosertib + Pictilisib; first compound 0.01 µM) | relative viability (Adavosertib + Pictilisib; first compound 0.03162 µM) | relative viability (Adavosertib + Pictilisib; first compound 0.1 µM) | relative viability (Adavosertib + Pictilisib; first compound 0.3162 µM) | relative viability (Nelarabine + Trametinib; first compound 0.01 µM) | relative viability (Nelarabine + Trametinib; first compound 0.03162 µM) | relative viability (Nelarabine + Trametinib; first compound 0.1 µM) | relative viability (Nelarabine + Trametinib; first compound 0.3162 µM) | relative viability (Nelarabine + Trametinib; first compound 1 µM) | relative viability (Adavosertib + Decitabine; first compound 0.01 µM) | relative viability (Adavosertib + Decitabine; first compound 0.03162 µM) | relative viability (Adavosertib + Decitabine; first compound 0.1 µM) | relative viability (Adavosertib + Decitabine; first compound 0.3162 µM) |
| --- | --- | --- | --- | --- | --- | --- | --- | --- | --- | --- | --- | --- | --- | --- | --- | --- | --- | --- |
| NCI-H1703 | 0.17 | 0.0897 | 0.132 | 0.131 | 0.104 | 0.297 | 0.227 | 0.179 | 0.127 |  |  |  |  |  |  |  |  |  |
| NCI-H1651 | 0.495 | 0.53 | 0.452 | 0.518 | 0.422 | 0.497 | 0.491 | 0.565 | 0.42 | 0.948 | 0.909 | 0.842 | 0.827 | 0.821 | 0.578 | 0.681 | 0.603 | 0.525 |
| LU99A | 0.365 | 0.284 | 0.335 | 0.312 | 0.424 | 0.341 | 0.303 | 0.354 | 0.241 | 0.548 | 0.552 | 0.554 | 0.561 | 0.599 | 0.942 | 0.912 | 0.846 | 0.69 |
| LK-2 | 0.408 |  | 0.289 | 0.498 | 0.309 | 0.549 | 0.622 | 0.676 | 0.59 | 0.903 | 0.474 | 0.795 | 0.956 | 0.86 | 0.254 | 0.346 | 0.349 | 0.412 |
| NCI-H1666 | 0.844 | 0.877 | 0.819 | 0.84 | 0.795 | 0.5 | 0.324 | 0.309 | 0.403 | 0.82 | 1 | 0.738 | 0.839 | 0.859 | 0.629 | 0.616 | 0.73 | 0.703 |
| H3255 | 0.835 | 0.933 | 0.938 | 0.854 | 0.95 | 0.502 | 0.452 | 0.447 | 0.402 | 0.713 | 0.706 | 0.619 | 0.651 | 0.806 | 0.636 | 0.694 | 0.609 | 0.674 |
| SK-MES-1 |  |  |  |  |  | 0.307 | 0.343 | 0.321 | 0.213 | 0.56 | 0.567 | 0.57 | 0.555 | 0.615 | 0.368 | 0.385 | 0.364 | 0.227 |
| NCI-H2023 |  |  |  |  |  | 0.251 | 0.21 | 0.197 | 0.143 | 0.721 | 0.61 | 0.46 | 0.632 | 0.505 | 0.203 | 0.224 | 0.191 | 0.141 |
| NCI-H1650 |  |  |  |  |  | 0.652 | 0.579 | 0.506 | 0.3 | 0.513 | 0.694 | 0.462 | 0.818 | 0.562 | 0.449 | 0.415 | 0.564 | 0.27 |
| LCLC-97TM1 | 0.273 |  | 0.351 | 0.281 | 0.215 |  | 0.146 | 0.223 | 0.167 |  |  | 0.189 | 0.203 | 0.224 | 0.262 | 0.264 | 0.246 | 0.221 |
